Data on 28 compounds can be found in patent US8354422B2, “Pyrimidine inhibitors of kinase activity” (Abbott Laboratories Inc., priority 2009, dated 2013).

The target of the experiment is T1, C-terminal GST-tagged, recombinant, human IGF-1R, amino acids 954-1367 (Homo sapiens, UniProt P08069).
T1 construct: human IGF-1R, amino acids 954-1367 expressed by baculovirus in Sf21 cells; GST (C); purchased Cell Signaling Technology; host or cells: baculovirus in Sf21 cells
T1 sequence (P08069 954-1367): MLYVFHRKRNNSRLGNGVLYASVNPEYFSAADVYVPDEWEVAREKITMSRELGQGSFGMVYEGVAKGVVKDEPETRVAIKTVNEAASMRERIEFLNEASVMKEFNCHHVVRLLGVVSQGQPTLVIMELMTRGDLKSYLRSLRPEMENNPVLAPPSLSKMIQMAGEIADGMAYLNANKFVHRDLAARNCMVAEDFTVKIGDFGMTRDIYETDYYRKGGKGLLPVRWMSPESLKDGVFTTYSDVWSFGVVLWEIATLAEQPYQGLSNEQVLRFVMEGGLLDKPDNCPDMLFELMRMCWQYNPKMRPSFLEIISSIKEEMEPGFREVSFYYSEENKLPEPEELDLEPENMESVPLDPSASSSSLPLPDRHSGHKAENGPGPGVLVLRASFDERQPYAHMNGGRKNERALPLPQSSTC
The experiment can be described thus: IGF-1R kinase activity, homogenous time-resolved fluorescence (HTRF) in vitro kinase assay. Type of experiment: biochemical. Particulars: IGF-1R kinase HTRF assay, ATP 50 μM, biotinylated peptide substrate 0.5 μM, 60 minutes at room temperature. The protocol:
IGF-1R kinase activity was assayed by a homogenous time-resolved fluorescence (HTRF) in vitro kinase assay (Mathis, G., HTRF(R) Technology. J Biomol Screen, 1999. 4(6): p. 309-314). Specifically, 10 μL C-terminal GST-tagged, recombinant, human IGF-1R, amino acids 954-1367 expressed by baculovirus in Sf21 cells (Cell Singaling Technology) was mixed with 10 μL inhibitor (various concentrations, 2% final DMSO) and 10 μL of ATP (50 μM final concentration) in reaction buffer (50 mM HEPES, pH […], 2 mM MnCl2, 0.1% BSA and 1 mM DTT, 40 μL final volume). The reaction was initiated by addition of 10 μL of biotinylated peptide substrate (Biotin-Ahx-[…], 0.5 μM final concentration) in a black 384-well plate (Packard). After 60 minutes incubation at room temperature, the reaction was quenched by addition of 60 μL stop/revelation buffer to give 30 mM EDTA, 1 μg/mL streptavidin-APC (Prozyme), 50 ng/mL anti-phosphotyrosine mAb PT66-K Europium Cryptate, 30 mM HEPES, pH 7.5, 120 mM KF, 0.005% Tween-20, 0.05% BSA). The quenched reaction was allowed to stand at room temperature for 1 hour and then read in a time-resolved fluorescence detector (Envision, Perkin Elmer) at 615 nm and 665 nm simultaneously. The ratio between the signal of 615 nm and 665 nm was used in the calculation of the IC50.
For `CN(C)CCc1cccc(Nc2nccc(-c3c(-c4ccc(OCc5ccccc5)cc4)nc4ccccn34)n2)c1` [Example 1, 4-{2-[4-(benzyloxy)phenyl]imidazo[1,2-a]pyridin-3-yl}-N-{3-[2-(dimethylamino)ethyl]phenyl}pyrimidin-2-amine], the IC50 is under 25 nM.

Regarding `COc1cc(N2CCOCC2)ccc1Nc1nccc(-c2c(-c3ccc(OCc4ccccc4)cc3)nc3ccccn23)n1` [Example 2, 4-{2-[4-(benzyloxy)phenyl]imidazo[1,2-a]pyridin-3-yl}-N-(2-methoxy-4-morpholin-4-ylphenyl)pyrimidin-2-amine], the IC50 is 101 to 500 nM. `COc1ccccc1Nc1nccc(-c2c(-c3ccc(OCc4ccccc4)cc3)nc3ccccn23)n1` [Example 3, 4-{2-[4-(benzyloxy)phenyl]imidazo[1,2-a]pyridin-3-yl}-N-(2-methoxyphenyl)pyrimidin-2-amine]: the IC50 was over 1000 nM. Turning to `CS(=O)(=O)c1cccc(Nc2nccc(-c3c(-c4ccc(OCc5ccccc5)cc4)nc4ccccn34)n2)c1` [Example 4, 4-{2-[4-(benzyloxy)phenyl]imidazo[1,2-a]pyridin-3-yl}-N-[3-(methylsulfonyl)phenyl]pyrimidin-2-amine], the IC50 is over 1000 nM. As for `CN(C)S(=O)(=O)c1cccc(Nc2nccc(-c3c(-c4ccc(OCc5ccccc5)cc4)nc4ccccn34)n2)c1` [Example 5, 3-[(4-{2-[4-(benzyloxy)phenyl]imidazo[1,2-a]pyridin-3-yl}pyrimidin-2-yl)amino]-N,N-dimethylbenzenesulfonamide], the figure is over 1000 nM; as for `CS(=O)(=O)c1ccc(Nc2nccc(-c3c(-c4ccc(OCc5ccccc5)cc4)nc4ccccn34)n2)cc1` [Example 6, 4-{2-[4-(benzyloxy)phenyl]imidazo[1,2-a]pyridin-3-yl}-N-[4-(methylsulfonyl)phenyl]pyrimidin-2-amine], over 1000 nM. As for `c1ccc(COc2ccc(-c3nc4ccccn4c3-c3ccnc(Nc4ccccc4)n3)cc2)cc1` [Example 7, 4-{2-[4-(benzyloxy)phenyl]imidazo[1,2-a]pyridin-3-yl}-N-phenylpyrimidin-2-amine], the IC50 was over 1000 nM. With `CN(C)CCc1cccc(Nc2nccc(-c3c(-c4ccc(OCc5ccccc5)cc4F)nc4ccccn34)n2)c1` [Example 8, 4-{2-[4-(benzyloxy)-2-fluorophenyl]imidazo[1,2-a]pyridin-3-yl}-N-{3-[2-(dimethylamino)ethyl]phenyl}pyrimidin-2-amine], the IC50 lay within 25 to 100 nM. Regarding `CN(C)CCc1cccc(Nc2nccc(-c3c(-c4ccc(OCc5ccccc5)c(F)c4)nc4ccccn34)n2)c1` [Example 9, 4-{2-[4-(benzyloxy)-3-fluorophenyl]imidazo[1,2-a]pyridin-3-yl}-N-{3-[2-(dimethylamino)ethyl]phenyl}pyrimidin-2-amine], the concentration for half-maximal inhibition (IC50) was 25 to 100 nM.

Consider `Cc1cc(OCc2ccccc2)ccc1-c1nc2ccccn2c1-c1ccnc(Nc2cccc(CCN(C)C)c2)n1` [Example 10, 4-{2-[4-(benzyloxy)-2-methylphenyl]imidazo[1,2-a]pyridin-3-yl}-N-{3-[2-(dimethylamino)ethyl]phenyl}pyrimidin-2-amine], for which the IC50 lay in the range of 101 to 500 nM. With `CN(C)CCc1cccc(Nc2nccc(-c3c(-c4ccc(OCc5ccccc5)c(Cl)c4)nc4ccccn34)n2)c1` [Example 11, 4-{2-[4-(benzyloxy)-3-chlorophenyl]imidazo[1,2-a]pyridin-3-yl}-N-{3-[2-(dimethylamino)ethyl]phenyl}pyrimidin-2-amine], the IC50 fell in the range of 101 to 500 nM.

In the case of `COc1cc(-c2nc3ccccn3c2-c2ccnc(Nc3cccc(CCN(C)C)c3)n2)ccc1OCc1ccccc1` [Example 12, 4-{2-[4-(benzyloxy)-3-methoxyphenyl]imidazo[1,2-a]pyridin-3-yl}-N-{3-[2-(dimethylamino)ethyl]phenyl}pyrimidin-2-amine], the IC50 was in the range of 101 to 500 nM. As for `COc1cc(N2CCC(N3CCN(C)CC3)CC2)ccc1Nc1nccc(-c2c(-c3ccc(OCc4ccccc4)cc3)nc3ccccn23)n1` [Example 13, 4-{2-[4-(benzyloxy)phenyl]imidazo[1,2-a]pyridin-3-yl}-N-{2-methoxy-4-[4-(4-methylpiperazin-1-yl)piperidin-1-yl]phenyl}pyrimidin-2-amine], the IC50 was 101 to 500 nM. Regarding `Cc1cc(Nc2nccc(-c3c(-c4ccc(OCc5ccccc5)cc4)nc4ccccn34)n2)n[nH]1` [Example 14, 4-{2-[4-(benzyloxy)phenyl]imidazo[1,2-a]pyridin-3-yl}-N-(5-methyl-1H-pyrazol-3-yl)pyrimidin-2-amine], the IC50 is over 1000 nM. The value for `c1ccc(COc2ccc(-c3nc4ccccn4c3-c3ccnc(Nc4cc(C5CC5)n[nH]4)n3)cc2)cc1` [Example 15, 4-{2-[4-(benzyloxy)phenyl]imidazo[1,2-a]pyridin-3-yl}-N-(3-cyclopropyl-1H-pyrazol-5-yl)pyrimidin-2-amine] was over 1000 nM. Take `COc1ccccc1COc1ccc(-c2nc3ccccn3c2-c2ccnc(Nc3cccc(CCN(C)C)c3)n2)cc1` [Example 16, N-{3-[2-(dimethylamino)ethyl]phenyl}-4-(2-{4-[(2-methoxybenzyl)oxy]phenyl}imidazo[1,2-a]pyridin-3-yl)pyrimidin-2-amine]: the IC50 lay in the range of 101 to 500 nM. On to `COc1ccc(COc2ccc(-c3nc4ccccn4c3-c3ccnc(Nc4cccc(CCN(C)C)c4)n3)cc2)cc1` [Example 17, N-{3-[2-(dimethylamino)ethyl]phenyl}-4-(2-{4-[(4-methoxybenzyl)oxy]phenyl}imidazo[1,2-a]pyridin-3-yl)pyrimidin-2-amine], for which the IC50 is 101 to 500 nM.

In the case of `CN(C)CCc1cccc(Nc2nccc(-c3c(-c4ccc(OCc5ccccc5F)cc4)nc4ccccn34)n2)c1` [Example 18, N-{3-[2-(dimethylamino)ethyl]phenyl}-4-(2-{4-[(2-fluorobenzyl)oxy]phenyl}imidazo[1,2-a]pyridin-3-yl)pyrimidin-2-amine], the IC50 is 101 to 500 nM. As to `CN(C)CCc1cccc(Nc2nccc(-c3c(-c4ccc(OCc5cccc(F)c5)cc4)nc4ccccn34)n2)c1` [Example 19, N-{3-[2-(dimethylamino)ethyl]phenyl}-4-(2-{4-[(3-fluorobenzyl)oxy]phenyl}imidazo[1,2-a]pyridin-3-yl)pyrimidin-2-amine], the half-inhibitory concentration (IC50) lay in the range of 101 to 500 nM. As to `CN(C)CCc1cccc(Nc2nccc(-c3c(-c4ccc(OCc5ccc(F)cc5)cc4)nc4ccccn34)n2)c1` [Example 20, N-{3-[2-(dimethylamino)ethyl]phenyl}-4-(2-{4-[(4-fluorobenzyl)oxy]phenyl}imidazo[1,2-a]pyridin-3-yl)pyrimidin-2-amine], the IC50 lay in the range of 101 to 500 nM. As to `CC(Oc1ccc(-c2nc3ccccn3c2-c2ccnc(Nc3cccc(CCN(C)C)c3)n2)cc1)c1ccccc1` (stereo not shown) [Example 21, N-{3-[2-(dimethylamino)ethyl]phenyl}-4-{2-[4-(1-phenylethoxy)phenyl]imidazo[1,2-a]pyridin-3-yl}pyrimidin-2-amine], the IC50 was in the range of 101 to 500 nM. For the compound `COc1cc(Cl)ccc1Nc1nccc(-c2c(-c3ccc(OCc4ccccc4)cc3)nc3ccccn23)n1` [Example 22, 4-{2-[4-(benzyloxy)phenyl]imidazo[1,2-a]pyridin-3-yl}-N-(4-chloro-2-methoxyphenyl)pyrimidin-2-amine], the IC50 is over 1000 nM. As to `COc1cc(-c2nc3ccccn3c2-c2ccnc(Nc3ccc(CCN4CCCC4)cc3)n2)ccc1OCc1ccccc1` [Example 23, 4-{2-[4-(benzyloxy)-3-methoxyphenyl]imidazo[1,2-a]pyridin-3-yl}-N-[4-(2-pyrrolidin-1-ylethyl)phenyl]pyrimidin-2-amine], the IC50 was 25 to 100 nM. Regarding `COc1cc(-c2nc3ccccn3c2-c2ccnc(Nc3cccc(CCN4CCCC4)c3)n2)ccc1OCc1ccccc1` [Example 24, 4-{2-[4-(benzyloxy)-3-methoxyphenyl]imidazo[1,2-a]pyridin-3-yl}-N-[3-(2-pyrrolidin-1-ylethyl)phenyl]pyrimidin-2-amine], the IC50 was in the range of 25 to 100 nM. As for `COc1cc(-c2nc3ccccn3c2-c2ccnc(Nc3cccc(N4CCOCC4)c3)n2)ccc1OCc1ccccc1` [Example 25, 4-{2-[4-(benzyloxy)-3-methoxyphenyl]imidazo[1,2-a]pyridin-3-yl}-N-(3-morpholin-4-ylphenyl)pyrimidin-2-amine], the figure is 101 to 500 nM. On to `Cn1cc(Nc2nccc(-c3c(-c4ccc(OCc5ccccc5)cc4)nc4ccccn34)n2)cn1` [Example 26, 4-{2-[4-(benzyloxy)phenyl]imidazo[1,2-a]pyridin-3-yl}-N-(1-methyl-1H-pyrazol-4-yl)pyrimidin-2-amine], for which the IC50 was 101 to 500 nM. Take `OCCn1cc(Nc2nccc(-c3c(-c4ccc(OCc5ccccc5)cc4)nc4ccccn34)n2)cn1` [Example 27, 2-{4-[(4-{2-[4-(benzyloxy)phenyl]imidazo[1,2-a]pyridin-3-yl}pyrimidin-2-yl)amino]-1H-pyrazol-1-yl}ethanol]: the IC50 fell in the range of 101 to 500 nM. As for `Fc1ccc(Nc2nccc(-c3c(-c4ccc(OCc5ccccc5)cc4)nc4ccccn34)n2)cc1` [Example 28, 4-{2-[4-(benzyloxy)phenyl]imidazo[1,2-a]pyridin-3-yl}-N-(4-fluorophenyl)pyrimidin-2-amine], the IC50 is over 1000 nM.
